Like-named read-outs stand apart in the source and are kept apart here.
Experiments:
[1] = test system: P. falciparum OAR; details: cited from earlier work
[2] = test system: M. tuberculosis OAR; details: cited from earlier work
[3] = test system: Escherichia coli OAR; details: E. coli, ref [32], cited from earlier work
[4] = test system: adult worms; test: Inhibition studies on cultured adult worms
[5] = molecular target: T1, rSjOAR (Schistosoma japonicum, UniProt Q5DB51); test: BIAcore assay of binding to immobilized rSjOAR
Procedure: The binding capacities of small compounds identified by the virtual screen with rSjOAR were assessed using a BIAcore 3000 instrument (BIAcore AB, Uppsala, Sweden). The recombinant His-tag fusion protein SjOAR was immobilized onto an NTA chip. Compounds were injected at a concentration of 10 µM and a flow rate of 40 µl/min in HBS buffer (0.01 M HEPES, 0.15 M NaCl, 3.0 mM EDTA, 0.005% Tween 20, pH 7.4) containing 1‰ DMSO (Dimethyl sulfoxide). Electrical alterations on the sensor chip were monitored as a resonance signal by using the program supplied by the manufacturer. To further obtain kinetic parameters, a series of compound concentrations (0.5 µM, 1 µM, 2 µM, 5 µM and 10 µM) were measured. Data were analyzed by using the software with which the instrument was equipped.

[6] = test system: adult worms; set-up: method as in PMID 19851783; details: after the drug is removed; ref [30]; cited from earlier work
[7] = molecular target: T1, rSjOAR; test: Effect of active compounds on rSjOAR enzymatic activity; assay type: biochemical
Procedure: The Median inhibitory concentration (IC50) was calculated by curve fitting using SPSS18.0 statistical software with a confidence interval of 95%. All assays were carried out in triplicate and repeated three times.

[8] = substrate: CC(=O)CC(=O)SCCNC(=O)CCNC(=O)[C@H](O)C(C)(C)COP(=O)(O)OP(=O)(O)OC[C@H]1O[C@@H](n2cnc3c(N)ncnc32)[C@H](O)[C@@H]1OP(=O)(O)O; test: rSjOAR kinetic analysis (Michaelis constants of substrates); assay type: biochemical; details: other: S. japonicum; pH 6.8; 37.0 °C
Procedure: The linear rates obtained over the first 0–2 min were analyzed by the non-linear regression function in OriginPro software. To investigate the enzyme mechanism, a matrix of kinetic data was taken where one substrate was varied at four fixed concentrations of the other substrate. Individual data sets were analyzed using the Michaelis-Menten equation (eq 1) in order to establish whether the double-reciprocal plots were parallel or convergent. The data for intersecting initial velocity patterns were fitted to eq2, describing a steady-state sequential mechanism.

## CC(=O)CC(=O)SCCNC(=O)CCNC(=O)[C@H](O)C(C)(C)COP(=O)(O)OP(=O)(O)OC[C@H]1O[C@@H](n2cnc3c(N)ncnc32)[C@H](O)[C@@H]1OP(=O)(O)O [AcAcCoA, Acetoacetyl-CoA]
[1]; read-out: Km(app)AcAcCoA, ref [12], [22]
  Km: 510 ± 50 µM
[2]; read-out: Km(app)AcAcCoA, M. tuberculosis, ref [17], [20]
  Km: 170 ± 20 µM
[3]; read-out: Km(app)AcAcCoA
  Km: 2.5 mM

## O=C(NC1CCN(CCc2c[nH]c3ccccc23)CC1)c1ccccc1 [OAR8]
[4]; primary screening, 50 µg/ml, after 48 h
  mortality: 100%
[5]; BIAcore
  Rmax (maximum binding capacity): 57.4
[5]; BIAcore, five concentrations 0.5-10 µM
  KA (association constant): 82900 M⁻¹
[5]; BIAcore, five concentrations 0.5-10 µM, read-out: KD (dissociation constant)
  Kd: 12.1 µM

## O=C(C1CCCCC1)N1CC(=O)N2CCc3ccccc3C2C1 (stereo not shown) [PZQ, praziquantel]
[6]
  reversibility of effect against schistosomes: reversible
[4]; PZQ 10 µg/ml, 24 h (Figure 5E)
  morphological changes, optical microscopy: drastic contractions
[4]; Schistosoma japonicum, 72 h
  mortality at 1.6 µg/mL: 83.3%
[5]; compound 10 µM
  BIAcore response signal: only a small signal
[7]
  effect on rSjOAR enzymatic activity: no significant inhibition

## NADPH
[1]; read-out: Km(app)NADPH, ref [12], [22]
  Km: 47.5 ± 4.5 µM
[2]; read-out: Km(app)NADPH
  Km: 26 ± 3 µM
[3]; read-out: Km(app)NADPH
  Km: 0.021 mM

B1: rSjOAR (Schistosoma japonicum) (protein)
chain: MISLSKKVAIVTGASSGIGRATAILFAKLGACVALVARDKSRLQETRQACIQVSHPDVYEKHKEPFLCIEADLGDSHEVEKAYRLALNHFHQLDILVNNAGFMIQDTVETFNIDEYERLMKLNLTAAITLTNLAVPDLTTTKGSIVNVSSVCGERSFPGVMSYCISKAALDQFTKCTALDLASKGIRVNSVNPAVIVTELHKRAGMSEDDYKKFLLKSKESHALGRTGTVEEVAQAIAFLSSSASSFTTGNLLMVDGGRSIMCPR
[8]
  Km: 0.55 ± 0.03 mM
